The text below walks through data of patent US20220213092A1, “BICYCLIC PYRAZOLE BRUTON'S TYROSINE KINASE INHIBITORS” (AbbVie Inc., priority 2020, published 2022).

The structures appear in SMILES notation.

In one experiment the target is T1, BTK (Homo sapiens, UniProt Q06187).
T1 construct: purchased Nanosyn, Santa Clara, Calif; host or cells: 293HEK
As to the kind of experiment: BTK kinase electrophoretic mobility shift assay (MSA). In kind it is biochemical. The settings on record: 50 μM ATP, 0.5 nM BTK enzyme (Nanosyn-293HEK, WT), 3 hours at 25° C.; all examples except 50, 51, 62 and 63; read-out: BTK IC50. The protocol: Kinase activity, unless otherwise indicated, was measured in vitro using an electrophoretic mobility shift assay (MSA). The phosphorylation of a peptide substrate by BTK and other kinases was measured. The kinase reactions were assembled in a total volume of 25 μL per well in 384 well plates. The following was added to each well: compound buffer (or control); enzyme buffer; and substrate buffer, as further described below.
The terminated reactions were analyzed using a 12 channel LABCHIP® 3000 microfluidic detection instrument (available from Caliper Life Sciences, Waltham, Mass.). […] Change in the relative fluorescence intensity of the substrate and product peaks was the parameter measured, reflecting enzyme activity. In the presence of an inhibitor, the ratio between product and substrate was altered. The signal of the product decreased, while the signal of the substrate increased. Capillary electrophoregrams (RDA acquisition files) were analyzed using HTS Well Analyzer software (available from Caliper Life Sciences, Waltham, Mass.).
Activity in each sample was determined as the product to sum ratio (PSR): P/(S+P), where P was the peak height of the product peptide and S was the peak height of the substrate peptide. For each compound, enzyme activity was measured at various concentrations (12 concentrations of compound spaced by 3× dilution intervals). Negative control samples (00 inhibition in the absence of inhibitor) and positive control samples (10000 inhibition, in the presence of 20 mM EDTA) were assembled in replicates of four and were used to calculate 00 inhibition values for each inhibitor at each concentration. Percent inhibition (Pinh) was determined using following equation: Pinh=(PSR0%−PSRinh)/(PSR0%−PSR100%)*100, where PSRinh was the product sum ratio in the presence of inhibitor, PSR0% was the average product sum ratio in the absence of inhibitor and PSR100% was the average product sum ratio in 100%−inhibition control samples.
The IC50 values of inhibitors were determined by 4 parameter sigmoidal dose response model fitting of the inhibition curves (Pinh versus inhibitor concentration) using XLfit® 4 software (available from IDBS, Boston, Mass.).

Experiment [1] concerns the target T2, Phosphorylation of Y223 of BTK (Homo sapiens, UniProt Q06187).
T2 construct: host or cells: healthy human whole blood, 3 donors
Kind of experiment: Whole blood compound screening, phosphorylation of Y223 site of BTK (MSD assay). In kind it is cell-based. The conditions noted are these: healthy human whole blood, 2 hours at 37° C., 3 separate donors; read-out: WB BTK-pY223 EC50. The protocol: Healthy human whole blood (WB) was collected from […]™ Technologies or […]® in sodium heparinized tubes. Whole blood was stored at ambient temperature to avoid coagulation. Each compound was tested in 3 separate donors. Compound stock solutions (10 mM) were used to generate dose titration (8 concentrations, starting concentration 10 μM, 1:4 dilution) in appropriate volume of dimethyl sulfoxide (0.2%). Whole blood was incubated with compounds in 96-well plates for 2 hours in tissue culture incubators at 37° C. under a 5% CO2 atmosphere. The whole blood was lysed in equal volume of lysis buffer (Cell Signaling Technology®, Danvers, Mass.) containing complete protease inhibitor tablet, PhosSTOP™ tablet, sodium orthovanadate and sodium fluoride and phenylmethanesulfonyl fluoride solution. The lysed whole blood was then frozen at −80° C. for overnight.
Phosphorylation of Y223 of BTK was measured using an MSD assay (Meso Scale Diagnostics, LLC, Rockville, Md.). The thawed lysed whole blood was incubated with the capturing antibody rabbit anti-human BTK (D3H5) (Cell Signaling Technology, Danvers, Mass.) at 4° C. overnight. After washing out the unbound samples, the detection antibody biotinylated rabbit anti-pY223-BTK(D9T6H) (Cell Signaling Technology®, Danvers, Mass.) was added to the plates. After washing out the unbound antibodies, SULFO-TAG Streptavidin (Meso Scale Diagnostics, LLC, Rockville, Md.) was used for detection on Meso Sector S600 (Meso Scale Diagnostics, LLC, Rockville, Md.).
The EC50 values were determined using software from Dotmatics. The activity of exemplary compounds is illustrated below.

T2 sequence (Q06187 whole entry): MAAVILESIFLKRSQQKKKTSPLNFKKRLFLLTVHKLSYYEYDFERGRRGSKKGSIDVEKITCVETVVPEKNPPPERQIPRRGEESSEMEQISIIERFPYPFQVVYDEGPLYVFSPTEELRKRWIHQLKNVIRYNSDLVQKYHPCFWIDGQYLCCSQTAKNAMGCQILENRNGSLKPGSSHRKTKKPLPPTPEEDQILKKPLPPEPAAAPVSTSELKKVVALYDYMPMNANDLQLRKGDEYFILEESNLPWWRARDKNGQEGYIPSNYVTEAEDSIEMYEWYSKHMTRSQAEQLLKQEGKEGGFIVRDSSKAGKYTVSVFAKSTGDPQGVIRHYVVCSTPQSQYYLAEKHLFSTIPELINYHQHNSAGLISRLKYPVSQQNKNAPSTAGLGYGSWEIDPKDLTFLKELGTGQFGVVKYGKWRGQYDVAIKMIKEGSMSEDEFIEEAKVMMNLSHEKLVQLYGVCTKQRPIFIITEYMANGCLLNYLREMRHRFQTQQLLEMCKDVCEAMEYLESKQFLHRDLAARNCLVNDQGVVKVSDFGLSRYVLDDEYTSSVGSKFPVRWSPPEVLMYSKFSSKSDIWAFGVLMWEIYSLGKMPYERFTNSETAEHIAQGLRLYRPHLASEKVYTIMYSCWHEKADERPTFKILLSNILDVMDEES
T1 sequence (Q06187 whole entry): as above

Usually IC50 stands for the concentration that inhibits the measured activity by half. As a reminder, the EC50 is the concentration giving half of the maximal effect. For `C=CC(=O)N1CCC(C2CCNc3c2nn(-c2ccc(Oc4ccccc4)cc2)c3C(N)=O)CC1` (racemic) [Example 1, Rac-2-(4-phenoxyphenyl)-7-[1-(prop-2-enoyl)piperidin-4-yl]-4,5,6,7-tetrahydro-2H-pyrazolo[4,3-b]pyridine-3-carboxamide], the 50% inhibitory concentration (IC50) on BTK was 0.426 nM. In addition, the 50% effective concentration (EC50) in experiment [1] was determined as 42.2 nM.
The like results for `C=CC(=O)N1C[C@@H]2CN(C3CCNc4c3nn(-c3ccc(Oc5ccccc5)cc3)c4C(N)=O)C[C@@H]2C1` (mixture of isomers) [Example 66, 2-(4-phenoxyphenyl)-7-[rac-(3aR,6aS)-5-(prop-2-enoyl)hexahydropyrrolo[3,4-c]pyrrol-2(1H)-yl]-4,5,6,7-tetrahydro-2H-pyrazolo[4,3-b]pyridine-3-carboxamide] were, in that order, 65.7 nM and 1820 nM.
The like results for `C=CC(=O)N1CCN(C2CCNc3c2nn(-c2ccc(Oc4ccccc4)cc2)c3C(N)=O)CC1` (centres unmarked) [Example 3, 2-(4-phenoxyphenyl)-7-[4-(prop-2-enoyl)piperazin-1-yl]-4,5,6,7-tetrahydro-2H-pyrazolo[4,3-b]pyridine-3-carboxamide] were, in that order, 0.993 nM and 40.7 nM.
The like results for `C=CC(=O)N1CCC([C@H]2CCNc3c2nn(-c2ccc(Oc4ccccc4)cc2)c3C(N)=O)CC1` [Example 4, (7R)-2-(4-phenoxyphenyl)-7-[1-(prop-2-enoyl)piperidin-4-yl]-4,5,6,7-tetrahydro-2H-pyrazolo[4,3-b]pyridine-3-carboxamide] were, in that order, 0.331 nM and 35.7 nM.
On to `C=CC(=O)N1CCC(C2CCNc3c2nn(-c2ccc(Oc4cccc(F)c4)cc2)c3C(N)=O)CC1` (centres unmarked) [Example 12, 2-[4-(3-fluorophenoxy)phenyl]-7-[1-(prop-2-enoyl)piperidin-4-yl]-4,5,6,7-tetrahydro-2H-pyrazolo[4,3-b]pyridine-3-carboxamide], for which the IC50 on BTK was 0.495 nM. Also, in experiment [1], the EC50 worked out at 32.9 nM.
For `C=CC(=O)N1CCC(C2CCNc3c2nn(-c2ccc(Oc4cccc(OC)c4)cc2)c3C(N)=O)CC1` (centres unmarked) [Example 15, 2-[4-(3-methoxyphenoxy)phenyl]-7-[1-(prop-2-enoyl)piperidin-4-yl]-4,5,6,7-tetrahydro-2H-pyrazolo[4,3-b]pyridine-3-carboxamide] the same measures were 0.684 nM and 55.6 nM.
For the molecule `C=CC(=O)N1CCC(N2CCNc3c2nn(-c2ccc(Oc4ccccc4)cc2)c3C(N)=O)CC1` [Example 16, 2-(4-phenoxyphenyl)-7-[1-(prop-2-enoyl)piperidin-4-yl]-4,5,6,7-tetrahydro-2H-pyrazolo[3,4-b]pyrazine-3-carboxamide], at BTK, the half-maximal inhibitory concentration (IC50) came to 0.592 nM. The half-maximal effective concentration (EC50) in experiment [1] worked out at 18.3 nM.
Turning to `C=CC(=O)N1CC(N2CCNc3c2nn(-c2ccc(Oc4ccccc4)cc2)c3C(N)=O)C1` [Example 22, 2-(4-phenoxyphenyl)-7-[1-(prop-2-enoyl)azetidin-3-yl]-4,5,6,7-tetrahydro-2H-pyrazolo[3,4-b]pyrazine-3-carboxamide], on BTK, the IC50 stood at 1.11 nM. Further, in experiment [1], the EC50 amounted to 38.2 nM.
For `C=CC(=O)N1CCC(C2CCNc3c2nn(-c2ccc(Oc4cccc(C)c4)cc2)c3C(N)=O)CC1` (centres unmarked) [Example 24, 2-[4-(3-methylphenoxy)phenyl]-7-[1-(prop-2-enoyl)piperidin-4-yl]-4,5,6,7-tetrahydro-2H-pyrazolo[4,3-b]pyridine-3-carboxamide] the same measures were 0.735 nM and 92.9 nM.
For the molecule `C=CC(=O)N1CCC([C@H]2CCNc3c2nn(-c2ccc(Oc4ccc(F)cc4F)cc2)c3C(N)=O)CC1` [Example 30, (7R)-2-[4-(2,4-difluorophenoxy)phenyl]-7-[1-(prop-2-enoyl)piperidin-4-yl]-4,5,6,7-tetrahydro-2H-pyrazolo[4,3-b]pyridine-3-carboxamide], the IC50 at BTK is 1.05 nM. In experiment [1], the concentration for a half-maximal effect (EC50) was found to be 45.3 nM.
As to `C=CC(=O)N1[C@@H]2CC[C@H]1CN(C1CCNc3c1nn(-c1ccc(Oc4ccccc4)cc1)c3C(N)=O)C2` (stereo partly drawn) [Example 35, 2-(4-phenoxyphenyl)-7-[(1R,5S)-8-(prop-2-enoyl)-3,8-diazabicyclo[3.2.1]octan-3-yl]-4,5,6,7-tetrahydro-2H-pyrazolo[4,3-b]pyridine-3-carboxamide], at BTK, the IC50 amounted to 0.884 nM. Further, the half-maximal effective concentration (EC50) in experiment [1] was found to be 128 nM.
The like results for `C=CC(=O)N1CCN(C2CCNc3c2nn(-c2ccc(Oc4ccccc4)cc2)c3C(N)=O)C[C@@H]1C` (stereo partly drawn) [Example 43, 7-[(3S)-3-methyl-4-(prop-2-enoyl)piperazin-1-yl]-2-(4-phenoxyphenyl)-4,5,6,7-tetrahydro-2H-pyrazolo[4,3-b]pyridine-3-carboxamide] were, in that order, 1.17 nM and 62.5 nM.
For `C=CC(=O)N1CCN([C@@H]2CCNc3c2nn(-c2ccc(Oc4ccc(O)cc4)cc2)c3C(N)=O)CC1` [Example 44, (7R)-2-[4-(4-hydroxyphenoxy)phenyl]-7-[4-(prop-2-enoyl)piperazin-1-yl]-4,5,6,7-tetrahydro-2H-pyrazolo[4,3-b]pyridine-3-carboxamide] the same measures were 15.4 nM and 158 nM.
In the case of `C=CC(=O)N1CCN(C2CCNc3c2nn(-c2ccc(Oc4ccccc4)cc2)c3C(N)=O)CC12CC2` (centres unmarked) [Example 53, 2-(4-phenoxyphenyl)-7-[4-(prop-2-enoyl)-4,7-diazaspiro[2.5]octan-7-yl]-4,5,6,7-tetrahydro-2H-pyrazolo[4,3-b]pyridine-3-carboxamide], the IC50 at BTK amounted to 1.2 nM. Moreover, the concentration giving a half-maximal response (EC50) in experiment [1] was found to be 71.8 nM.
Consider `C=CC(=O)N1CCN(C2CCNc3c2nn(-c2ccc(Oc4ccccc4C(F)(F)F)cc2)c3C(N)=O)CC1` (centres unmarked) [Example 54, 7-[4-(prop-2-enoyl)piperazin-1-yl]-2-{4-[2-(trifluoromethyl)phenoxy]phenyl}-4,5,6,7-tetrahydro-2H-pyrazolo[4,3-b]pyridine-3-carboxamide], for which the concentration for half-maximal inhibition (IC50) at BTK turned out to be 1.19 nM. The concentration for a half-maximal effect (EC50) in experiment [1] came out at 76.7 nM.
For `C=CC(=O)N1CCN(C2CCNc3c2nn(-c2ccc(Oc4cccc(F)c4)cc2)c3C(N)=O)CC1` (centres unmarked) [Example 57, 2-[4-(3-fluorophenoxy)phenyl]-7-[4-(prop-2-enoyl)piperazin-1-yl]-4,5,6,7-tetrahydro-2H-pyrazolo[4,3-b]pyridine-3-carboxamide] the same measures were 1.76 nM and 85.9 nM.
For `C=CC(=O)N1CCN([C@@H]2CCNc3c2nn(-c2ccc(Oc4ccccc4C(F)(F)F)cc2)c3C(N)=O)CC1` [Example 60, (7R)-7-[4-(prop-2-enoyl)piperazin-1-yl]-2-{4-[2-(trifluoromethyl)phenoxy]phenyl}-4,5,6,7-tetrahydro-2H-pyrazolo[4,3-b]pyridine-3-carboxamide] the same measures were 1.42 nM and 83.4 nM.
The like results for `C=CC(=O)N1CCN([C@@H]2CCNc3c2nn(-c2ccc(Oc4cccc(C#N)c4)cc2)c3C(N)=O)CC1` [Example 64, (7R)-2-[4-(3-cyanophenoxy)phenyl]-7-[4-(prop-2-enoyl)piperazin-1-yl]-4,5,6,7-tetrahydro-2H-pyrazolo[4,3-b]pyridine-3-carboxamide] were, in that order, 5.58 nM and 75 nM.
With `C=CC(=O)N1CCN([C@@H]2CCNc3c2nn(-c2ccc(Oc4cccc(C(F)(F)F)c4)cc2)c3C(N)=O)CC1` [Example 65, (7R)-7-[4-(prop-2-enoyl)piperazin-1-yl]-2-{4-[3-(trifluoromethyl)phenoxy]phenyl}-4,5,6,7-tetrahydro-2H-pyrazolo[4,3-b]pyridine-3-carboxamide], the IC50 at BTK was 0.953 nM. Besides, the EC50 in experiment [1] turned out to be 34.2 nM.
